Read-outs that look alike come from different tables or passages of the source.
Columns and labels:
[1] = tested on: BRAF-MEK1; assay: BRAF-MEK TR-FRET assay, stabilization of MEK1 and BRAF interaction; type: binding; conditions: 4 nM BRAF, 10 nM MEK, 100 μM ATP, 1 hr at 25° C., read-out: BRAF-MEK TR-FRET Assay (EC50, fold stabilization)
Source text: Protein expression and purification: BRAF (445-723) with N-term His-tag and C-term StrepII tag was expressed using the Expi293 system (ThermoFisher) and purified using Strep-Tactin® XT-Superflow (IBA) chromatography. ERK1 (full-length) with N-term His-tag was expressed in Rosetta DE3 cells (Millipore) and purified using HisTrap HP (Cytiva) and Superdex 200 (Cytiva) column chromatography. Full-length MEK1 for TR-FRET assays with N-term His-tag was expressed in BL21DE3 cells (ThermoFisher) and purified using HisTrap HP (Cytiva) and Superdex 200 (Cytiva) column chromatography.
Efficacy of exemplary compounds in stabilization of MEK1 and BRAF interaction: Compound stabilization of BRAF-MEK interaction was evaluated using TR-FRET (Time Resolved Fluorescence Energy Transfer). The FRET assay consisted of His-tagged MEK1 (produced in-house), GST-tagged BRAF (SignalChem, B08-11G), Anti His-Tb Cryptate donor, and Anti GST-XL665 acceptor fluorophores (PerkinElmer) to generate FRET signal upon BRAF-MEK1 binding. Compounds were prepared from DMSO stocks in assay buffer (50 mM Tris pH 7.5, 150 mM NaCl, 1 mM DTT, 0.05% Tween-20, 5 mM MgCl2, and 100 μM ATP) and incubated with 4 nM BRAF and 10 nM MEK for 1 hr at 25° C. 1 ng Anti His-Tb Cryptate/20 ng Anti GST-XL665 premix was then added and incubated for 1 hr at 25° C. TR-FRET was measured using Cytation5 microplate reader (Agilent) using Ex/Em=340/620 nm and Ex/Em=340/665 nm to determine the FRET ratio. Fold stabilization was calculated as FRET signal of treated well/DMSO control. Fold stabilization as a function of compound concentration from 2 replicate wells was fit with a 4-parameter logistic curve equation using GraphPad Prism or CDD Vault to derive EC50 values.
In this table, for the BRAF ADP Glo kinase assay, “A” indicates IC50 of less than 5 nM; “B” indicates IC50 of between 5 nM to 50 nM; and “C” indicates IC50 of between 50 nM to 500 nM. “D” indicates IC50 of greater than 500 nM. For the BRAF-MEK TR-FRET assay, “A” indicates EC50 of less than 50 nM; “B” indicates EC50 of between 50 nM to 200 nM; and “C” indicates EC50 of between 200 nM to 1 μM. “D′” indicates EC50 of greater than 1 μM. For the AlphaLisa P-ERK assay, “A” indicates IC50 of less than 1 nM; “B” indicates IC50 of between 1 nM to 10 nM; and “C” indicates IC50 of between 10 nM to 100 nM. “D” indicates IC50 of greater than 100 nM. For the cell viability assay, “A” indicates IC50 of less than 1 nM; “B” indicates IC50 of between 1 nM to 10 nM; and “C” indicates IC50 of between 10 nM to 100 nM. “D” indicates IC50 of greater than 100 nM.

[2] = molecular target: T1, MEK1 (Homo sapiens, UniProt Q02750); assay: MEK1 kinase cascade assay (ADP-Glo), inhibition of MEK1 kinase activity; type: biochemical; conditions: 25 nM BRAF, 6.25 nM MEK1, 0.5 μM ERK, 1 mM ATP; 20 min preincubation, 1 hr at 25° C.; read-out: BRAF ADP Glo kinase assay V3 (IC50)
T1 construct: purchased SignalChem M02-14H
Summary of the method: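 Compounds were preincubated 20 mins at 25° C with 25 nM BRAF(445-723) in 10 mM HEPES pH 7.5, 5 mM MgCl2, 2 mM CHAPS, 1 mM DTT, then 6.25 nM MEK1, 0.5 μM ERK1 and 1 mM ATP were added for 1 hr at 25° C, with 1% DMSO. ADP-Glo luminescence was normalized to DMSO and 1 μM Trametinib; IC50 came from 4-parameter fits of duplicates.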

T1 sequence (Q02750 whole entry): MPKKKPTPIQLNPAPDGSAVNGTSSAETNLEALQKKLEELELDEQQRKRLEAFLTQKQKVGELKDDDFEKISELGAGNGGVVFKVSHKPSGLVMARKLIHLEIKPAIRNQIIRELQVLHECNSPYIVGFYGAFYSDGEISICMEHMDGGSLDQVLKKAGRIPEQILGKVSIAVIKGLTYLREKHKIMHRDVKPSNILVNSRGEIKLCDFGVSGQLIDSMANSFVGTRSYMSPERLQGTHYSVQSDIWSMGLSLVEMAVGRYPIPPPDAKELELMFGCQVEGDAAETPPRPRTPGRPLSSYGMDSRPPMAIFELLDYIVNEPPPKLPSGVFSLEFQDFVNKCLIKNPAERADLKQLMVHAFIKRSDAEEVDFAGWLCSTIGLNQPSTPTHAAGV
T1 sequence (P15056 445-723 partner limits assumed): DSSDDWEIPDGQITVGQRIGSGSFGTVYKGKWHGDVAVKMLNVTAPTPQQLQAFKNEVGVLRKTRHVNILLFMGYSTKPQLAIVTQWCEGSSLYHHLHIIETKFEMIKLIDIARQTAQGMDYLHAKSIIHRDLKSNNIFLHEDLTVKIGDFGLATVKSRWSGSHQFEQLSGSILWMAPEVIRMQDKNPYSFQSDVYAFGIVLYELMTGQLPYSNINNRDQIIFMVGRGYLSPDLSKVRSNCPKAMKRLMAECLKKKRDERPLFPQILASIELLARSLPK

Compound: CNS(=O)(=O)Nc1cccc(CN2C(=O)Oc3cc(Oc4ncco4)c(F)cc3C2C)c1F (single isomer, unassigned) [Compound 85, (R)-6-fluoro-3-({2-fluoro-3-(methylsulfamoyl)amino]phenyl}methyl)-4-methyl-7-(1,3-oxazol-2-yloxy)-3,4-dihydro-2H-1,3-benzoxazin-2-one or (S)-6-fluoro-3-({2-fluoro-3-(methylsulfamoyl)amino]phenyl}methyl)-4-methyl-7-(1,3-oxazol-2-yloxy)-3,4-dihydro-2H-1,3-benzoxazin-2-one]
- EC50 [1]: 200 to 1000 nM
- IC50 [2]: 5 to 50 nM

Compound: CN(C)C(=O)Oc1ccc2c(c1)OC(=O)N(Cc1cccc(NS(=O)(=O)N3CCC(C(N)=O)C3)c1F)C2 (centres unmarked) [Compound 28, 3-[(3-{[(3-carbamoylpyrrolidin-1-yl)sulfonyl]amino}-2-fluorophenyl)methyl]-2-oxo-3,4-dihydro-2H-1,3-benzoxazin-7-yl N,N-dimethylcarbamate]
- EC50 [1]: 200 to 1000 nM
- IC50 [2]: 5 to 50 nM

Compound: CN(C)S(=O)(=O)Nc1nccc(CN2C(=O)Oc3cc(Oc4cccnn4)ccc3C23CCC3)c1F [Compound 181, 3-{[2-(dimethylaminosulfonylamino)-3-fluoro-4-pyridyl]methyl}-7-(3-pyridazinyloxy)-2H,3H-spiro[1,3-benzoxazine-4,1′-cyclobutan]-2-one]
- EC50 [1]: 200 to 1000 nM
- IC50 [2]: 5 to 50 nM

Compound: CNS(=O)(=O)Nc1nccc(CN2C(=O)Oc3cc(Oc4ncco4)c(F)cc3C2C)c1F (single isomer, unassigned) [Compound 185, 6-fluoro-3-{[3-fluoro-2-(methylaminosulfonylamino)-4-pyridyl]methyl}-4-methyl-7-(1,3-oxazol-2-yloxy)-3,4-dihydro-2H-1,3-benzoxazin-2-one]
- EC50 ([1]; 60 min): 50 to 200 nM
- IC50 [2]: 5 to 50 nM

Compound: CNS(=O)(=O)Nc1cc(F)cc(CN2Cc3ccc(Oc4cccnn4)cc3OC2=O)c1F [Compound 200, 3-{[2,5-difluoro-3-(methylaminosulfonylamino)phenyl]methyl}-7-(3-pyridazinyloxy)-3,4-dihydro-2H-1,3-benzoxazin-2-one]
- EC50 [1]: 200 to 1000 nM
- IC50 [2]: 5 to 50 nM

Compound: [2H]C1([2H])c2ccc(Oc3nccnn3)cc2OC(=O)N1Cc1cccc(NS(=O)(=O)NC)c1F [Compound 31, 3-({2-fluoro-3-[(methylsulfamoyl)amino]phenyl}methyl)-7-(1,2,4-triazin-3-yloxy)-3,4-dihydro(4,4-^2 H2)-2H-1,3-benzoxazin-2-one]
- EC50 [1]: < 50 nM
- IC50 [2]: 5 to 50 nM

Compound: CNS(=O)(=O)Nc1nccc(CN2C(=O)Oc3cc(Oc4cccnn4)cnc3C23CC3)c1F [Compound 202, 2′-{[3-fluoro-2-(methylaminosulfonylamino)-4-pyridyl]methyl}-6′-(3-pyridazinyloxy)-2′H,3′H-4′-oxa-2′,8′-diazaspiro[cyclopropane-1,1′-naphthalen]-3′-one]
- EC50 [1]: < 50 nM
- IC50 [2]: < 5 nM

Compound: CN(C)C(=O)Oc1ccc2c(c1)OC(=O)N(Cc1cccc(NS(=O)(=O)N3CCOCC3)c1F)C2 [Compound 110, 3-(2-fluoro-3-(morpholine-4-sulfonamido)benzyl)-2-oxo-3,4-dihydro-2H-benzo[e][1,3]oxazin-7-yl dimethylcarbamate]
- EC50 [1]: 200 to 1000 nM
- IC50 [2]: 5 to 50 nM

Compound: CNS(=O)(=O)Nc1cccc(CN2C(=O)Oc3cc(OC(=O)N(C)C)ccc3[C@@H]2C)c1F [Compound 152, 3-(2-fluoro-3-((N-methylsulfamoyl)amino)benzyl)-4-methyl-2-oxo-3,4-dihydro-2H-benzo[e][1,3]oxazin-7-yl dimethylcarbamate]
- EC50 [1]: 200 to 1000 nM
- IC50 [2]: 5 to 50 nM

Compound: CNS(=O)(=O)Nc1cccc(CN2Cc3ccc(Oc4ncco4)c(F)c3OC2=O)c1F [Compound 91, 8-fluoro-3-{[2-fluoro-3-(methylaminosulfonylamino)phenyl]methyl}-7-(1,3-oxazol-2-yloxy)-3,4-dihydro-2H-1,3-benzoxazin-2-one]
- EC50 [1]: 200 to 1000 nM
- IC50 [2]: < 5 nM

Compound: CNS(=O)(=O)Nc1cccc(CN2C(=O)Oc3cc(OC(=O)N(C)C)c(Cl)cc3[C@H]2C)c1F [Compound 107, (R)-6-chloro-7-(dimethylaminocarbonyloxy)-3-{[2-fluoro-3-(methylaminosulfonylamino)phenyl]methyl}-4-methyl-3,4-dihydro-2H-1,3-benzoxazin-2-one]
- EC50 [1]: 200 to 1000 nM
- IC50 [2]: 5 to 50 nM

Compound: O=C1Oc2c(ccc(Oc3nccnn3)c2F)C2(CCC2)N1Cc1ccnc(NS(=O)(=O)C2CC2)c1F [Compound 187, (cyclopropylsulfonyl)[3-fluoro-4-({8-fluoro-2-oxo-7-(1,2,4-triazin-3-yloxy)-2H,3H-spiro[1,3-benzoxazine-4,1′-cyclobutan]-3-yl}methyl)-2-pyridyl]amine]
- EC50 [1]: 50 to 200 nM
- IC50 [2]: 5 to 50 nM

Compound: CNS(=O)(=O)Nc1nccc(CN2C(=O)Oc3cc(Oc4cccnn4)cnc3[C@H]2C)c1F (stereo in doubt) [Compound 192, 3-{[3-fluoro-2-(methylaminosulfonylamino)-4 pyridyl]methyl}-4-methyl-7-(3-pyridazinyloxy)-3,4-dihydro-2H-1-oxa-3,5 diazanaphthalen-2-one]
- EC50 ([1]; 60 min): 200 to 1000 nM
- IC50 [2]: 5 to 50 nM

Compound: CNS(=O)(=O)Nc1nccc(CN2C(=O)Oc3c(ccc(Oc4cccnn4)c3F)C23CCC3)c1F [Compound 174, 8-fluoro-3-{[3-fluoro-2-(methylaminosulfonylamino)-4-pyridyl]methyl}-7-(3-pyridazinyloxy)-2H,3H-spiro[1,3-benzoxazine-4,1′-cyclobutan]-2-one]
- EC50 [1]: < 50 nM
- IC50 [2]: 5 to 50 nM

Compound: CN(C)S(=O)(=O)Nc1nccc(CN2C(=O)Oc3cc(Oc4ncco4)ccc3C23CCC3)c1F [Compound 179, 3-{[2-(dimethylaminosulfonylamino)-3-fluoro-4-pyridyl]methyl}-7-(1,3-oxazol-2-yloxy)-2H,3H-spiro[1,3-benzoxazine-4,1′-cyclobutan]-2-one]
- EC50 [1]: 200 to 1000 nM
- IC50 [2]: 5 to 50 nM

Compound: O=C1Oc2c(ccc(Oc3ncco3)c2F)C2(CCC2)N1Cc1ccnc(NS(=O)(=O)C2CC2)c1F [Compound 183, (cyclopropylsulfonyl)[3-fluoro-4-({8-fluoro-7-(1,3-oxazol-2-yloxy)-2-oxo-2H,3H-spiro[1,3-benzoxazine-4,1′-cyclobutan]-3-yl}methyl)-2-pyridyl]amine]
- EC50 [1]: 200 to 1000 nM
- IC50 [2]: 50 to 500 nM

Compound: COC1CCN(S(=O)(=O)Nc2cccc(CN3Cc4ccc(OC(=O)N(C)C)cc4OC3=O)c2F)C1 (centres unmarked) [Compound 100, 3-(2-fluoro-3-((3-methoxypyrrolidine)-1-sulfonamido)benzyl)-2-oxo-3,4-dihydro-2H-benzo[e][1,3]oxazin-7-yl dimethylcarbamate]
- EC50 [1]: 200 to 1000 nM
- IC50 [2]: 5 to 50 nM

Compound: CN(C)S(=O)(=O)Nc1cccc(CN2C(=O)Oc3cc(Oc4cccnn4)ccc3C2(C)C)c1F [Compound 34, 3-{[3-(dimethylaminosulfonylamino)-2-fluorophenyl]methyl}-4,4-dimethyl-7-(3-pyridazinyloxy)-3,4-dihydro-2H-1,3-benzoxazin-2-one]
- EC50 [1]: 200 to 1000 nM
- IC50 [2]: < 5 nM

Compound: CNS(=O)(=O)Nc1cccc(CN2Cc3cc(F)c(OC(=O)N(C)C)cc3OC2=O)c1F [Compound 120, 6-fluoro-3-(2-fluoro-3-((N-methylsulfamoyl)amino)benzyl)-2-oxo-3,4-dihydro-2H-benzo[e][1,3]oxazin-7-yl dimethylcarbamate]
- EC50 [1]: 50 to 200 nM
- IC50 [2]: < 5 nM

From patent US20260297105A1, “RAF-MEK PROTEIN COMPLEX MODULATORS AND METHODS OF USE THEREOF” (GANDEEVA THERAPEUTICS, INC., priority 2023, published 2026)
